Test results from patent US10865188B2, “Dibenzo azepine compounds and their use in the treatment of otic diseases and disorders” (Pipeline Therapeutics, Inc., priority 2015, dated 2020).
Like-named read-outs stand apart in the source and are kept apart here.

Key:
HES5 = experiment: Human neural stem cell assay, Hes5 gene expression (real-time PCR); type: cell-based; conditions: human neural stem cells, 7 point CRC, read-out: hNSC HES5 IC50
Procedure: (§1) Neural stem cells (NSC) were derived from embryonic stem cells using a published protocol (Yuan et al., Mar. 2, 2011, PLoS ONE, 6(3):e17540). Cells were sorted and characterized at passage 3 and were expanded. Cells were then frozen at passage 5. Cells were maintained in NSC media (DMEM/F12, N2 (1×), B27(1×) (Invitrogen), and Pen/Strep (1×) (Life Technologies) with 20 ng/ml bFGF (BD Bioscience/Corning)). On day 1, cells were plated in 96 well plates that have been previously coated with poly-ornithin and laminin, 60,000 cells/well in 100 μl of media. On day 2, spent media was removed, and 180 μl of fresh media was added to the cells. Later that same day (day 2), cells were treated with 20 μl of NSC media containing test compounds (7 point CRC). On day 3, spent media was removed and 140 μl of RLT/bME was added to the cells. RNA was extracted using the QiaCube (Qiagen®, Germantown, Md., USA) using the total RNA extraction+DNAse protocol. RNA was then reverse-transcribed to cDNA using iScript (Bio-Rad, Hercules, Calif., USA). cDNA was then used for real-time PCR analysis using iTaq Sybergreen (BioRad). Expression of Atoh1, Hes5, Hes1, Myosin7a genes was evaluated using CFX96 or CFX384 (Bio-Rad). HPRT1 was used as a reference gene. Analysis was done using Microsoft® Excel® and CBIS (ChemInnovation Software, Inc., San Diego, Calif., USA). […]

mice = experiment: Auditory brainstem response (ABR) hearing threshold; type: in vivo; conditions: formulations of Examples 3(c) and 3(d) (2% w/v crystalline, poloxamer 407)
Procedure: Surgery was performed on naïve mice or mice with noise or pharmacologically-damaged ears. The animals were anesthetized with isoflurane and an 8 mm retroauricular incision was made to the lower caudal edge of the pinna. The skin was retracted and the fatty tissue was blunt dissected away from where the facial nerve and muscle come together. The muscle was retracted to reveal an area in the tympanic bulla where the bone was thin. A 30 g needle was used to drill a hole in the exposed thin portion of the otic bulla. A Hamilton syringe equipped with a 32 g blunt needle was inserted into the opening of the otic bulla. The drug formulation was delivered by injection and the needle removed. Wound closure was made with tissue glue.
Naïve mice or mice at various times after either noise or pharmacological deafening were anesthetized with ketamine/xylazine/acepromazine and the auditory brainstem response was determined in both ears using a Tucker Davis (Alachua, Fla.) RZ6 apparatus. The mice were exposed to clicks or pure tones of 4, 8, 16, 24 and 32 kHz at 90-10 dB in 10 dB descending steps and the hearing threshold was determined.

[1] = Guinea pig PK after transtympanic delivery (perilymph and cochlea, LC/MS/MS); type: in vivo; conditions: for concentration at 1 day / concentration at 7 day / concentration at 14 day / concentration at 3 day / concentration at 21 day / concentration at 28 day: male, Hartley, other: transtympanic, 30 μL, 30 μL transtympanic; for concentration at 1 day: Day 1, LLOQ = 0.08 μM; for concentration at 7 day: Day 7, LLOQ = 0.08 μM; for concentration at 14 day: Day 14, LLOQ = 0.08 μM; for concentration at 3 day: Day 3, LLOQ = 0.08 μM; for concentration at 21 day: Day 21, LLOQ = 0.08 μM; for concentration at 28 day: Day 28, LLOQ = 0.08 μM
Description: (§2) Male Hartley guinea pigs (300-350 g) were anesthetized with ketamine and xylazine. Thirty microliters of an aqueous pharmaceutical composition of the instant embodiments was delivered transtympanically to deposit the drug to the round window membrane. Delivery was unilateral. The animals were placed in a warm chamber in a lateral recumbent position keeping the dosed ear side up until they recover from anesthesia.
At various timepoints after administration, the animals were euthanized by CO2 inhalation. Blood and CSF were collected and stored at −80° C. The animals were decapitated, the temporal bones removed and the bulla opened to expose the otic capsule. Ipsilateral and contralateral perilymph were collected from the apex using a microcapillary tube. The ipsilateral cochlea was removed from the otic capsule and stored at −80° C. All tissues collected were analyzed using LC/MS/MS for test compound concentration as follows. Analytical standards were prepared by spiking known concentrations of the test compound stock solutions into matrices such as plasma or artificial CSF. Fixed amounts of tissues collected and spiked standards were precipitated with acetonitrile containing buspirone as an internal standard. The precipitated samples were centrifuged at 4000 g for 10 minutes at 4° C. The supernatants were analyzed using LC-MS/MS. The LC-MS/MS system was set up using the AB Sciex 4000 Qtrap (AB Sciex, Framingham, Mass.) equipped with Agilent 1200 series HPLC and CTC PAL Autosampler (Agilent Technologies, Santa Clara, Calif.).
Liquid compositions described herein were evaluated using the method described in Part E of the Biological Function section provided above. The liquid compositions prepared as described in Example 5(a)-5(d) were each drawn into a 1 mL syringe. Using the filled 1 mL syringe, the liquid composition was back-filled at 5° C. into a 100 μL Hamilton syringe adapted with 28 gauge needle. The Hamilton syringe was then allowed to warm to room temperature.
as §2, with “the above liquid” for “an aqueous pharmaceutical”, “were” for “of the instant embodiments was”, “The delivery” for “Delivery”, “recovered” for “recover”
At various timepoints after administration, the animals were euthanized by CO2 inhalation. Blood and cerebrospinal fluid were collected and stored at −80° C. The animals were decapitated, the temporal bones removed and the bulla were opened to expose the otic capsule. Ipsilateral and contralateral perilymph were collected from the apex using a microcapillary tube. The ipsilateral cochlea was removed from the otic capsule and was stored at −80° C. All tissues collected were analyzed using LC/MS/MS as described in Part E of the Biological Function section above.
The concentrations of Compound I and Compound II were measured using LC/MS/MS in both the perilymph fluid and the cochlea tissue after a transtympanic injection of an instant formulation of either the crystalline form or the amorphous form at various time points. […] Concentration of the instant compounds in the perilymph and/or cochlea tissue was above the human NSC EC50 for Atoh1, an indicator that the subject compounds may be efficacious in hair cell regeneration and hearing restoration in human. […] Table 3 below lists the results for the studies using aqueous formulations of crystalline Compound I while Table 4 below lists those for aqueous formulations of crystalline Compound II. The results for aqueous formulations of crystalline Compound I are also graphically shown in FIG. 5A and FIG. 5B while the results for aqueous formulations of crystalline Compound II are graphically shown in FIG. 6A and FIG. 6B.

Atoh1 = experiment: Human neural stem cell assay, Atoh1 gene expression (real-time PCR); type: cell-based; conditions: human neural stem cells, 7 point CRC, read-out: hNSC Atoh1 EC50
Procedure: as §1

[2] = cochlea, Amorphous form (Example 5(b)), read-out: Cochlea Average concentration
[3] = cochlea, Crystalline form (Example 5(a)), read-out: Cochlea Average concentration
[4] = perilymph, Amorphous form (Example 5(b)), read-out: perilymph Average concentration
[5] = perilymph, Crystalline form (Example 5(a)), read-out: Perilymph Average concentration

IC50 (HES5): 288 nM
concentration in the perilymph and the cochlea compared with the human NSC EC50 for Atoh1 ([1]; dosed as the crystalline form, transtympanic): above the NSC EC50 from day 1 to day 28
concentration at 1 day [1, 2]: 211 µM
concentration at 7 day [1, 2]: 28.4 µM
concentration at 14 day [1, 2]: 0.04 µM
concentration at 1 day [1, 3]: 69 µM
concentration at 3 day [1, 3]: 25.6 µM
concentration at 7 day [1, 3]: 4.1 µM
concentration at 14 day [1, 3]: 9 µM
concentration at 21 day [1, 3]: 6.2 µM
concentration at 28 day [1, 3]: 12.8 µM
concentration at 1 day [1, 4]: 33.3 µM
concentration at 7 day [1, 4]: 14 µM
concentration at 14 day [1, 4]: 0 µM
concentration at 1 day [1, 5]: 395 µM
concentration at 3 day [1, 5]: 568 µM
concentration at 7 day [1, 5]: 18.9 µM
concentration at 14 day [1, 5]: 116 µM
concentration at 21 day [1, 5]: 18.2 µM
concentration at 28 day [1, 5]: 10.4 µM
exposure to the inner ear, crystalline formulation versus respective amorphous formulation ([1]; transtympanic, formulations of Example 5(a)-5(d)): longer exposure
EC50 (Atoh1): 625 nM
SMILES: C[C@H](OC(=O)NCC(F)(F)C(F)(F)F)C(=O)N[C@@H]1C(=O)Nc2ccccc2-c2ccccc21 [Compound I, (2,2,3,3,3-pentafluoropropyl)-carbamic acid (S)-1-((S)-6-oxo-6,7-dihydro-5H-dibenzo[b,d]azepin-7-ylcarbamoyl) ethyl ester]
ABR Threshold Improvement (mice; 16 kHz): 7 dB
ABR Threshold Improvement (mice; 24 kHz): 10 dB
ABR Threshold Improvement (mice; 32 kHz): 8 dB
concentration in the perilymph and the cochlea compared with the human NSC EC50 for Atoh1 ([1]; dosed as the amorphous form, transtympanic): above the human NSC EC50 for Atoh1 at 1 day and 7 days
